Assay results as given in patent publication US20100298141A1, “SUBSTITUTED PYRIDINE N-OXIDE HERBICIDES” (E. I. DU PONT DE NEMOURS AND COMPANY, priority 2007, published 2010).

Assays:
common ragweed = test: Test C pre-/postemergence test; assay type: in vivo, Ambrosia elation
Description: (§1) Seeds of plant species selected from blackgrass (Alopecurus myosuroides), downy brome (Bromus tectorum), green foxtail (Setaria viridis), Italian ryegrass (Lolium multiflorum), wheat (Triticum aestivum), wild oat (Avena fatua), catchweed bedstraw (Galium aparine), Russian thistle (Salsola kali), […] (Cynodon dactylon), Surinam grass (Brachiaria decumbens), cocklebur (Xanthium strumarium), corn (Zea mays), crabgrass (Digitaria sanguinalis), woolly cupgrass (Eriochloa villosa), giant foxtail (Setaria faberii), Goosegrass (Eleusin indica), johnsongrass (Sorghum halepense), kochia (Kochia scoparia), lambsquarters (Chenopodium album), morningglory (Ipomoea coccinea), eastern black nightshade (Solanum ptycanthum), yellow nutsedge (Cyperus esculentus), pigweed (Amaranthus retroflexus), common ragweed (Ambrosia elation), soybean (Glycine max), common (oilseed) sunflower (Helianthus annuus), and velvetleaf (Abutilon theophrasti) were planted and treated preemergence with test chemicals formulated in a non-phytotoxic solvent mixture which included a surfactant. At the same time, plants selected from these crop and weed species and also winter barley (Hordeum vulgare), canarygrass (Phalaris minor), and chickweed (Stellaria media) were treated with postemergence applications of some of the test chemicals formulated in the same manner. Plants ranged in height from 2 to 18 cm (1- to 4-leaf stage) for postemergence treatments. […] At time of treatment, test pots were flooded to 3 cm above the soil surface, treated by application of test compounds directly to the paddy water, and then maintained at that water depth for the duration of the test. […] A dash (-) response means no test result.

giant foxtail = test: Test A pre-/postemergence greenhouse test; assay type: in vivo, Setaria faberi; settings: for Plant response rating, Foxtail, Giant: 0 to 100 scale where 0 is no effect and 100 is complete control; for Foxtail, Giant plant response rating: 0 to 100 scale
Procedure, shortened: (§2)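 Planting was into mixed loam soil and sand; preemergence treatment followed as a directed soil spray. Concurrently, emerged plants (one- to two-leaf, 2–10 cm) received postemergence applications of identically formulated compound (non-phytotoxic solvent, surfactant). After approximately ten days under greenhouse conditions, injury was judged by eye against untreated plants.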

barnyardgrass = test: Test C flooded paddy test; assay type: in vivo, Echinochloa crus-galli; settings: Flood
Procedure, shortened: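 Greenhouse pots flooded to 3 cm above soil at time of treatment received compound via the water, which stayed at that level.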

velvetleaf = test: Test A pre-/postemergence greenhouse test; assay type: in vivo, Abutilon theophrasti; settings: for Plant response rating, Velvetleaf: 0 to 100 scale where 0 is no effect and 100 is complete control; for Velvetleaf plant response rating: 0 to 100 scale
Procedure, shortened: as §2

wheat = test: Test C pre-/postemergence test; assay type: in vivo, Triticum aestivum
Description: as §1

[1] = 62 g ai/ha, Preemergence, scale 0 to 100
[2] = 125 g ai/ha, preemergence, scale 0 (no effect) to 100 (complete control)
[3] = Postemergence, 125 g ai/ha, scale 0 to 100, 0 no effect, 100 complete control
[4] = Postemergence, 250 g ai/ha, scale 0 to 100, 0 no effect, 100 complete control
[5] = Preemergence, 31 g ai/ha, scale 0 to 100 (0 no effect, 100 complete control)
[6] = preemergence, 250 g ai/ha, scale 0 (no effect) to 100 (complete control)
[7] = Postemergence, 500 g ai/ha, 0 is no effect, 100 is complete control
[8] = Preemergence, 125 g ai/ha, 0 no effect, 100 complete control
[9] = 62 g ai/ha, scale 0 to 100 (0 no effect, 100 complete control)
[10] = 250 g ai/ha, scale 0 to 100, 0 no effect, 100 complete control, 13 to 15 days
[11] = 31 g ai/ha, Preemergence, scale 0 to 100
[12] = preemergence, 125 g ai/ha, scale 0 (no effect) to 100 (complete control)
[13] = Postemergence, 125 g ai/ha, 0 is no effect, 100 is complete control
[14] = 31 g ai/ha, scale 0 to 100 (0 no effect, 100 complete control)
[15] = 62 g ai/ha, scale 0 to 100, 0 no effect, 100 complete control, 13 to 15 days
[16] = 125 g ai/ha, scale 0 to 100, 0 no effect, 100 complete control, 13 to 15 days
[17] = 250 g ai/ha, scale 0 to 100 (0 no effect, 100 complete control)
[18] = 62 g ai/ha, preemergence, scale 0 (no effect) to 100 (complete control)
[19] = Preemergence, 500 g ai/ha, 0 no effect, 100 complete control

CCn1nc(C(F)(F)F)c(C[S+]([O-])c2cccc[n+]2[O-])c1OCC(F)(F)F (racemic) [Compound 65] was tested, and the “Ragweed plant response rating” value (common ragweed; [1]) was 100, the “Ragweed plant response rating” value (common ragweed; [2]) was 100 and the “Plant response rating (0 to 100), Ragweed” value (common ragweed; Postemergence, 31 g ai/ha) was 0. The “Plant response rating (0 to 100), Ragweed” value (common ragweed; Postemergence, 62 g ai/ha) was 0, the “Plant response rating, Ragweed” value (common ragweed; [3]) was 0 and the “Plant response rating, Ragweed” value (common ragweed; [4]) was 0. For the same molecule, the “Plant response rating, Ragweed” value (common ragweed; [5]) was 100, the “Ragweed plant response rating” value (common ragweed; [6]) was 100 and the “Plant response rating, Foxtail, Giant” value (giant foxtail; Postemergence, 125 g ai/ha) was 90. The “Foxtail, Giant plant response rating” value (giant foxtail; [7]) was 100, the “Foxtail, Giant plant response rating” value (giant foxtail; [8]) was 100 and the “Plant response rating, Foxtail, Giant” value (giant foxtail; Preemergence, 500 g ai/ha) was 100. For the same molecule, the “Plant response rating, Barnyardgrass” value (barnyardgrass; [9]) was 55, the “Plant response rating, Barnyardgrass” value (barnyardgrass; [10]) was 85 and the “Plant response rating, Velvetleaf” value (velvetleaf; Postemergence, 125 g ai/ha) was 80. The “Velvetleaf plant response rating” value (velvetleaf; [7]) was 90, the “Velvetleaf plant response rating” value (velvetleaf; [8]) was 100 and the “Plant response rating, Velvetleaf” value (velvetleaf; Preemergence, 500 g ai/ha) was 100. For the same molecule, the “Wheat plant response rating” value (wheat; [1]) was 80, the “Wheat plant response rating” value (wheat; [2]) was 100 and the “Plant response rating (0 to 100), Wheat” value (wheat; Postemergence, 31 g ai/ha) was 0. The “Plant response rating (0 to 100), Wheat” value (wheat; Postemergence, 62 g ai/ha) was 0, the “Plant response rating, Wheat” value (wheat; [3]) was 25 and the “Plant response rating, Wheat” value (wheat; [4]) was 30. For the same molecule, the “Plant response rating, Wheat” value (wheat; [5]) was 50 and the “Wheat plant response rating” value (wheat; [6]) was 100.

In the case of Cn1nc(C(F)(F)F)c(CS(=O)(=O)c2cccc[n+]2[O-])c1Cl [Compound 9], the “Ragweed plant response rating” value (common ragweed; [11]) is reported as 45, the “Plant response rating (0 to 100), Ragweed” value (common ragweed; Preemergence, 250 g ai/ha) is reported as 100 and the “Ragweed plant response rating” value (common ragweed; [12]) is reported as 90. The “Foxtail, Giant plant response rating” value (giant foxtail; [13]) was 90, the “Foxtail, Giant plant response rating” value (giant foxtail; [7]) was 90 and the “Foxtail, Giant plant response rating” value (giant foxtail; [8]) was 100. The “Plant response rating, Foxtail, Giant” value (giant foxtail; Preemergence, 500 g ai/ha) was 100, the “Plant response rating, Barnyardgrass” value (barnyardgrass; [14]) was 0 and the “Plant response rating, Barnyardgrass” value (barnyardgrass; [15]) was 60. For the same molecule, the “Plant response rating, Barnyardgrass” value (barnyardgrass; [16]) was 85, the “Plant response rating, Barnyardgrass” value (barnyardgrass; [17]) was 90 and the “Velvetleaf plant response rating” value (velvetleaf; [13]) was 0. For the same molecule, the “Velvetleaf plant response rating” value (velvetleaf; [7]) was 30, the “Velvetleaf plant response rating” value (velvetleaf; [8]) was 50 and the “Plant response rating, Velvetleaf” value (velvetleaf; Preemergence, 500 g ai/ha) was 60. The “Wheat plant response rating” value (wheat; [18]) was 30, the “Plant response rating (0 to 100), Wheat” value (wheat; Preemergence, 250 g ai/ha) was 70 and the “Wheat plant response rating” value (wheat; [12]) was 45.

CC(C)c1cc[n+]([O-])c([S+]([O-])Cc2c(C(F)(F)F)nn(C)c2OC(F)F)c1 (stereo not shown) [Compound 109] was tested, and the “Ragweed plant response rating” value (common ragweed; [1]) was 50, the “Ragweed plant response rating” value (common ragweed; [2]) was 55 and the “Plant response rating, Ragweed” value (common ragweed; [5]) was 50. The “Ragweed plant response rating” value (common ragweed; [6]) was 80, the “Plant response rating, Foxtail, Giant” value (giant foxtail; Postemergence, 125 g ai/ha) was 80 and the “Foxtail, Giant plant response rating” value (giant foxtail; [7]) was 90. The “Foxtail, Giant plant response rating” value (giant foxtail; [8]) was 90, the “Foxtail, Giant plant response rating” value (giant foxtail; [19]) was 100 and the “Plant response rating, Barnyardgrass” value (barnyardgrass; [14]) was 0. For the same molecule, the “Plant response rating, Barnyardgrass” value (barnyardgrass; [9]) was 20, the “Plant response rating, Barnyardgrass” value (barnyardgrass; [16]) was 20 and the “Plant response rating, Barnyardgrass” value (barnyardgrass; [10]) was 20. For the same molecule, the “Plant response rating, Velvetleaf” value (velvetleaf; Postemergence, 125 g ai/ha) was 60, the “Velvetleaf plant response rating” value (velvetleaf; [7]) was 80 and the “Velvetleaf plant response rating” value (velvetleaf; [8]) was 50. For the same molecule, the “Velvetleaf plant response rating” value (velvetleaf; [19]) was 100, the “Wheat plant response rating” value (wheat; [1]) was 50 and the “Wheat plant response rating” value (wheat; [2]) was 65. For the same molecule, the “Plant response rating, Wheat” value (wheat; [5]) was 10 and the “Wheat plant response rating” value (wheat; [6]) was 100.

In the case of Cn1nc(C(F)(F)F)c(C[S+]([O-])c2ccc(Br)c[n+]2[O-])c1OC(F)F (racemic) [Compound 16], the “Ragweed plant response rating” value (common ragweed; [11]) is reported as 10, the “Ragweed plant response rating” value (common ragweed; [18]) is reported as 45 and the “Ragweed plant response rating” value (common ragweed; [12]) is reported as 100. For the same molecule, the “Foxtail, Giant plant response rating” value (giant foxtail; [13]) was 80, the “Foxtail, Giant plant response rating” value (giant foxtail; [7]) was 90 and the “Foxtail, Giant plant response rating” value (giant foxtail; [8]) was 100. For the same molecule, the “Plant response rating, Foxtail, Giant” value (giant foxtail; Preemergence, 500 g ai/ha) was 100, the “Plant response rating, Barnyardgrass” value (barnyardgrass; [14]) was 0 and the “Plant response rating, Barnyardgrass” value (barnyardgrass; [15]) was 0. For the same molecule, the “Plant response rating, Barnyardgrass” value (barnyardgrass; [16]) was 0, the “Plant response rating, Barnyardgrass” value (barnyardgrass; [17]) was 0 and the “Velvetleaf plant response rating” value (velvetleaf; [13]) was 50. For the same molecule, the “Velvetleaf plant response rating” value (velvetleaf; [7]) was 90, the “Velvetleaf plant response rating” value (velvetleaf; [8]) was 80 and the “Plant response rating, Velvetleaf” value (velvetleaf; Preemergence, 500 g ai/ha) was 100. The “Wheat plant response rating” value (wheat; [18]) was 30, the “Plant response rating (0 to 100), Wheat” value (wheat; Preemergence, 250 g ai/ha) was 90 and the “Wheat plant response rating” value (wheat; [12]) was 60.

In the case of CCn1nc(C(F)(F)F)c(C(C)S(=O)(=O)c2cccc[n+]2[O-])c1OCC(F)(F)F (stereo not shown) [Compound 69], the “Plant response rating (0 to 100), Ragweed” value (common ragweed; Postemergence, 31 g ai/ha) is reported as 0, the “Plant response rating (0 to 100), Ragweed” value (common ragweed; Postemergence, 62 g ai/ha) is reported as 0 and the “Plant response rating, Ragweed” value (common ragweed; [3]) is reported as 0. The “Plant response rating, Ragweed” value (common ragweed; [4]) was 0, the “Plant response rating, Foxtail, Giant” value (giant foxtail; Postemergence, 125 g ai/ha) was 80 and the “Foxtail, Giant plant response rating” value (giant foxtail; [7]) was 100. The “Foxtail, Giant plant response rating” value (giant foxtail; [8]) was 100, the “Plant response rating, Foxtail, Giant” value (giant foxtail; Preemergence, 500 g ai/ha) was 100 and the “Plant response rating, Barnyardgrass” value (barnyardgrass; [9]) was 0. For the same molecule, the “Plant response rating, Barnyardgrass” value (barnyardgrass; [10]) was 75, the “Plant response rating, Velvetleaf” value (velvetleaf; Postemergence, 125 g ai/ha) was 50 and the “Velvetleaf plant response rating” value (velvetleaf; [7]) was 80. For the same molecule, the “Velvetleaf plant response rating” value (velvetleaf; [8]) was 10, the “Plant response rating, Velvetleaf” value (velvetleaf; Preemergence, 500 g ai/ha) was 100 and the “Plant response rating (0 to 100), Wheat” value (wheat; Postemergence, 31 g ai/ha) was 0. For the same molecule, the “Plant response rating (0 to 100), Wheat” value (wheat; Postemergence, 62 g ai/ha) was 0, the “Plant response rating, Wheat” value (wheat; [3]) was 20 and the “Plant response rating, Wheat” value (wheat; [4]) was 50.

Cn1nc(C(F)(F)F)c(C[S+]([O-])c2cc(Cl)cc[n+]2[O-])c1Cl (racemic) [Compound 39] was tested, and the “Ragweed plant response rating” value (common ragweed; [1]) was 0, the “Ragweed plant response rating” value (common ragweed; [2]) was 90 and the “Ragweed plant response rating” value (common ragweed; [6]) was 90. For the same molecule, the “Foxtail, Giant plant response rating” value (giant foxtail; [13]) was 80, the “Foxtail, Giant plant response rating” value (giant foxtail; [7]) was 90 and the “Foxtail, Giant plant response rating” value (giant foxtail; [8]) was 100. For the same molecule, the “Plant response rating, Foxtail, Giant” value (giant foxtail; Preemergence, 500 g ai/ha) was 100, the “Plant response rating, Barnyardgrass” value (barnyardgrass; [14]) was 0 and the “Plant response rating, Barnyardgrass” value (barnyardgrass; [15]) was 0. The “Plant response rating, Barnyardgrass” value (barnyardgrass; [16]) was 30, the “Plant response rating, Barnyardgrass” value (barnyardgrass; [10]) was 65 and the “Velvetleaf plant response rating” value (velvetleaf; [13]) was 40. The “Velvetleaf plant response rating” value (velvetleaf; [7]) was 60, the “Velvetleaf plant response rating” value (velvetleaf; [8]) was 70 and the “Plant response rating, Velvetleaf” value (velvetleaf; Preemergence, 500 g ai/ha) was 100.
